Assay results reported in US10131652B2, “Pyrimidinyloxy benzene derivatives as herbicides” (E. I. DU PONT DE NEMOURS AND COMPANY, priority 2014, dated 2018).
Where two headings read alike, the source gives them in different places.

Key:
Assay in all cases: Test E pre-/postemergence plant response
Assay type in all cases: in vivo
[1] = system: windgrass (Apera spica-venti); conditions: scale 0 to 100, read-out: Plant response rating, Windgrass; for pest or weed control at 16 g/ha: 16 g ai/ha; for pest or weed control at 62 g/ha: 62 g ai/ha; for pest or weed control at 125 g/ha: 125 g ai/ha
Outline: (§1)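 Visual scores on a 0–100 scale (100 = complete control) were assigned against untreated controls 7–21 days after treatment in a controlled environment. Compounds, formulated with solvent plus surfactant, were applied to pre-emergence silt-loam sowings or to 1- to 4-leaf plants (2–18 cm) in potting medium.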

[2] = system: winter wheat (Triticum aestivum); conditions: scale 0 to 100, read-out: Plant response rating, Wheat, Winter; for plant injury at 16 g/ha: 16 g ai/ha; for plant injury at 62 g/ha: 62 g ai/ha; for plant injury at 125 g/ha: 125 g ai/ha
Outline: as §1

[3] = system: canarygrass (Phalaris minor); conditions: scale 0 to 100, read-out: Plant response rating, Canarygrass; for pest or weed control at 16 g/ha: 16 g ai/ha; for pest or weed control at 31 g/ha: 31 g ai/ha; for pest or weed control at 62 g/ha: 62 g ai/ha; for pest or weed control at 125 g/ha: 125 g ai/ha
Outline: as §1

[4] = system: pigweed (Amaranthus retroflexus); conditions: scale 0 to 100, read-out: Plant response rating, Pigweed; for pest or weed control at 16 g/ha: 16 g ai/ha; for pest or weed control at 31 g/ha: 31 g ai/ha; for pest or weed control at 62 g/ha: 62 g ai/ha; for pest or weed control at 125 g/ha: 125 g ai/ha
Outline: as §1

[5] = system: spring wheat (Triticum aestivum); conditions: scale 0 to 100, read-out: Plant response rating, Wheat, Spring; for plant injury at 16 g/ha: 16 g ai/ha; for plant injury at 62 g/ha: 62 g ai/ha; for plant injury at 125 g/ha: 125 g ai/ha
Outline: as §1

[6] = system: spring barley (Hordeum vulgare); conditions: for plant injury at 16 g/ha: 16 g ai/ha; for plant injury at 31 g/ha: 31 g ai/ha; for plant injury at 62 g/ha: 62 g ai/ha; for plant injury at 125 g/ha: 125 g ai/ha
Outline: as §1

[7] = system: Italian ryegrass (Lolium multiflorum); conditions: scale 0 to 100, read-out: Plant response rating, Ryegrass, Italian; for pest or weed control at 16 g/ha: 16 g ai/ha; for pest or weed control at 31 g/ha: 31 g ai/ha; for pest or weed control at 62 g/ha: 62 g ai/ha; for pest or weed control at 125 g/ha: 125 g ai/ha
Outline: as §1

[8] = system: chickweed (common chickweed, Stellaria media); conditions: scale 0 to 100, read-out: Plant response rating, Chickweed; for pest or weed control at 16 g/ha: 16 g ai/ha; for pest or weed control at 31 g/ha: 31 g ai/ha; for pest or weed control at 62 g/ha: 62 g ai/ha; for pest or weed control at 125 g/ha: 125 g ai/ha
Outline: as §1

[9] = system: wild radish (Raphanus raphanistrum); conditions: scale 0 to 100, read-out: Plant response rating, Radish, Wild; for pest or weed control at 16 g/ha: 16 g ai/ha; for pest or weed control at 31 g/ha: 31 g ai/ha; for pest or weed control at 62 g/ha: 62 g ai/ha; for pest or weed control at 125 g/ha: 125 g ai/ha
Outline: as §1

kochia (Kochia scoparia) = conditions: Bassia scoparia, scale 0 to 100, read-out: Plant response rating, Kochia; for pest or weed control at 16 g/ha: 16 g ai/ha; for pest or weed control at 31 g/ha: 31 g ai/ha; for pest or weed control at 62 g/ha: 62 g ai/ha; for pest or weed control at 125 g/ha: 125 g ai/ha
Outline: as §1

[10] = system: field poppy (Papaver rhoeas); conditions: scale 0 to 100, read-out: Plant response rating, Field Poppy; for pest or weed control at 16 g/ha: 16 g ai/ha; for pest or weed control at 31 g/ha: 31 g ai/ha; for pest or weed control at 62 g/ha: 62 g ai/ha; for pest or weed control at 125 g/ha: 125 g ai/ha
Outline: as §1

[11] = post-emergence, 31 g ai/ha, Postemergence
[12] = post-emergence, Postemergence, scale 0 to 100, read-out: Plant response rating, Barley, Spring
[13] = pre-emergence, Preemergence, scale 0 to 100, read-out: Plant response rating, Barley, Spring

Compound: FC(F)c1cc(-c2ccccc2Oc2ncc(Br)cn2)no1 [Compound 62, 5-bromo-2-[2-[5-(difluoromethyl)-3-isoxazolyl]phenoxy]pyrimidine]
- pest or weed control at 16 g/ha ([1]; post-emergence, Postemergence): 10%
- pest or weed control at 31 g/ha [1, 11]: 20%
- pest or weed control at 62 g/ha ([1]; post-emergence, Postemergence): 30%
- pest or weed control at 125 g/ha ([1]; post-emergence, Postemergence): 65%
- pest or weed control at 16 g/ha ([1]; pre-emergence, Preemergence): 0%
- pest or weed control at 62 g/ha ([1]; pre-emergence, Preemergence): 50%
- pest or weed control at 125 g/ha ([1]; pre-emergence, Preemergence): 50%
- plant injury at 16 g/ha ([2]; post-emergence, Postemergence): 10%
- plant injury at 31 g/ha [2, 11]: 20%
- plant injury at 62 g/ha ([2]; post-emergence, Postemergence): 30%
- plant injury at 125 g/ha ([2]; post-emergence, Postemergence): 35%
- plant injury at 16 g/ha ([2]; pre-emergence, Preemergence): 0%
- plant injury at 62 g/ha ([2]; pre-emergence, Preemergence): 0%
- plant injury at 125 g/ha ([2]; pre-emergence, Preemergence): 5%
- pest or weed control at 16 g/ha ([3]; post-emergence, Postemergence): 25%
- pest or weed control at 31 g/ha ([3]; post-emergence, Postemergence): 35%
- pest or weed control at 62 g/ha ([3]; post-emergence, Postemergence): 45%
- pest or weed control at 125 g/ha ([3]; post-emergence, Postemergence): 55%
- pest or weed control at 16 g/ha ([3]; pre-emergence, Preemergence): 0%
- pest or weed control at 31 g/ha ([3]; pre-emergence, Preemergence): 0%
- pest or weed control at 62 g/ha ([3]; pre-emergence, Preemergence): 50%
- pest or weed control at 125 g/ha ([3]; pre-emergence, Preemergence): 90%
- pest or weed control at 16 g/ha ([4]; post-emergence, Postemergence): 90%
- pest or weed control at 31 g/ha ([4]; post-emergence, Postemergence): 90%
- pest or weed control at 62 g/ha ([4]; post-emergence, Postemergence): 95%
- pest or weed control at 125 g/ha ([4]; post-emergence, Postemergence): 95%
- pest or weed control at 16 g/ha ([4]; pre-emergence, Preemergence): 95%
- pest or weed control at 31 g/ha ([4]; pre-emergence, Preemergence): 100%
- pest or weed control at 62 g/ha ([4]; pre-emergence, Preemergence): 100%
- pest or weed control at 125 g/ha ([4]; pre-emergence, Preemergence): 100%
- plant injury at 16 g/ha ([5]; post-emergence, Postemergence): 5%
- plant injury at 31 g/ha [5, 11]: 20%
- plant injury at 62 g/ha ([5]; post-emergence, Postemergence): 25%
- plant injury at 125 g/ha ([5]; post-emergence, Postemergence): 40%
- plant injury at 16 g/ha ([5]; pre-emergence, Preemergence): 0%
- plant injury at 62 g/ha ([5]; pre-emergence, Preemergence): 0%
- plant injury at 125 g/ha ([5]; pre-emergence, Preemergence): 10%
- plant injury at 16 g/ha [6, 12]: 10%
- plant injury at 31 g/ha [6, 12]: 15%
- plant injury at 62 g/ha [6, 12]: 20%
- plant injury at 125 g/ha ([6]; post-emergence, Postemergence, scale 0 to 100 (0 no effect, 100 complete control), read-out: Plant response rating, Barley, Spring): 25%
- plant injury at 16 g/ha [6, 13]: 0%
- plant injury at 31 g/ha [6, 13]: 0%
- plant injury at 62 g/ha [6, 13]: 0%
- plant injury at 125 g/ha [6, 13]: 0%
- pest or weed control at 16 g/ha ([7]; post-emergence, Postemergence): 10%
- pest or weed control at 31 g/ha ([7]; post-emergence, Postemergence): 20%
- pest or weed control at 62 g/ha ([7]; post-emergence, Postemergence): 30%
- pest or weed control at 125 g/ha ([7]; post-emergence, Postemergence): 35%
- pest or weed control at 16 g/ha ([7]; pre-emergence, Preemergence): 0%
- pest or weed control at 31 g/ha ([7]; pre-emergence, Preemergence): 0%
- pest or weed control at 62 g/ha ([7]; pre-emergence, Preemergence): 15%
- pest or weed control at 125 g/ha ([7]; pre-emergence, Preemergence): 25%
- pest or weed control at 16 g/ha ([8]; post-emergence, Postemergence): 65%
- pest or weed control at 31 g/ha ([8]; post-emergence, Postemergence): 70%
- pest or weed control at 62 g/ha ([8]; post-emergence, Postemergence): 80%
- pest or weed control at 125 g/ha ([8]; post-emergence, Postemergence): 90%
- pest or weed control at 16 g/ha ([8]; pre-emergence, Preemergence): 65%
- pest or weed control at 31 g/ha ([8]; pre-emergence, Preemergence): 75%
- pest or weed control at 62 g/ha ([8]; pre-emergence, Preemergence): 100%
- pest or weed control at 125 g/ha ([8]; pre-emergence, Preemergence): 100%
- pest or weed control at 16 g/ha ([9]; post-emergence, Postemergence): 65%
- pest or weed control at 31 g/ha ([9]; post-emergence, Postemergence): 70%
- pest or weed control at 62 g/ha ([9]; post-emergence, Postemergence): 90%
- pest or weed control at 125 g/ha ([9]; post-emergence, Postemergence): 100%
- pest or weed control at 16 g/ha ([9]; pre-emergence, Preemergence): 25%
- pest or weed control at 31 g/ha ([9]; pre-emergence, Preemergence): 40%
- pest or weed control at 62 g/ha ([9]; pre-emergence, Preemergence): 95%
- pest or weed control at 125 g/ha ([9]; pre-emergence, Preemergence): 100%
- pest or weed control at 16 g/ha (kochia (Kochia scoparia); post-emergence, Postemergence): 65%
- pest or weed control at 31 g/ha (kochia (Kochia scoparia); post-emergence, Postemergence): 75%
- pest or weed control at 62 g/ha (kochia (Kochia scoparia); post-emergence, Postemergence): 90%
- pest or weed control at 125 g/ha (kochia (Kochia scoparia); post-emergence, Postemergence): 95%
- pest or weed control at 16 g/ha (kochia (Kochia scoparia); pre-emergence, Preemergence): 0%
- pest or weed control at 31 g/ha (kochia (Kochia scoparia); pre-emergence, Preemergence): 5%
- pest or weed control at 62 g/ha (kochia (Kochia scoparia); pre-emergence, Preemergence): 85%
- pest or weed control at 125 g/ha (kochia (Kochia scoparia); pre-emergence, Preemergence): 100%
- pest or weed control at 16 g/ha ([10]; post-emergence, Postemergence): 40%
- pest or weed control at 31 g/ha ([10]; post-emergence, Postemergence): 55%
- pest or weed control at 62 g/ha ([10]; post-emergence, Postemergence): 70%
- pest or weed control at 125 g/ha ([10]; post-emergence, Postemergence): 75%
- pest or weed control at 16 g/ha ([10]; pre-emergence, Preemergence): 65%
- pest or weed control at 31 g/ha ([10]; pre-emergence, Preemergence): 75%
- pest or weed control at 62 g/ha ([10]; pre-emergence, Preemergence): 100%
- pest or weed control at 125 g/ha ([10]; pre-emergence, Preemergence): 100%
